Data: US12410160B2 (Gilead Sciences, Inc., priority 2021, dated 2025)
Like-named read-outs stand apart in the source and are kept apart here.

What was measured:
human KHK-C = human KHK-C (Homo sapiens (Human), UniProt P50053); experiment: KHK Biochemical Assay (IC50), ADP-Glo, KHK-C; conditions: average of at least two separate assays
Procedure, shortened: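 Luminescent ADP-Glo read-out of ADP made by His-tagged KHK (BL21 (DE3) expression, Ni-NTA). Enzyme and compound sat together 30 min before ATP/fructose addition, then reacted 4 h at RT in Hepes pH 7.4 buffer with KCl, MgCl2, Triton-X. Quench 1 h, detection 1 h.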

HepG2 cells = experiment: F1P Cell-Based Assay (EC50), 13C6-fructose-1-phosphate in HepG2 cells (cell culture medium or 50% human plasma)
[1] = Homo sapiens, HepG2, HepG2 cells, 50% human plasma, read-out: F1P 50% HP EC50
[2] = Homo sapiens, HepG2, read-out: F1P 10% FBS EC50, HepG2 cells, cell culture medium (10% FBS)
[3] = Homo sapiens, HepG2, read-out: F1P 10% FBS EC50
[4] = Homo sapiens, HepG2, read-out: F1P 50% HP EC50
[5] = HepG2 cells, 50% human plasma, read-out: F1P 50% HP EC50
[6] = read-out: F1P 10% FBS EC50, HepG2 cells, cell culture medium (10% FBS)

Chain of human KHK-C (P50053 whole entry): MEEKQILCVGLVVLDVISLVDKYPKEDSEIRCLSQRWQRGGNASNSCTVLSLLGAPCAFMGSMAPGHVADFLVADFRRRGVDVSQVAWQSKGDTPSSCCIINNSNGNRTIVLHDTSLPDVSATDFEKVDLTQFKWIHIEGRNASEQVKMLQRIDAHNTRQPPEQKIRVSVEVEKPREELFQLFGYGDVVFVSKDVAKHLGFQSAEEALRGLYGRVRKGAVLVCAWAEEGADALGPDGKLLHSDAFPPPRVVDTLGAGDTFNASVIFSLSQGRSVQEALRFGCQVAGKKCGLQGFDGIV

Row | IC50 (human KHK-C) | EC50 (HepG2 cells; [1]) | EC50 (HepG2 cells; [2]) | EC50 (HepG2 cells; [5]) | EC50 (HepG2 cells; [6]) | Compound | EC50 (HepG2 cells; [3]) | EC50 (HepG2 cells; [4])
1 | 4.1 nM | > 500 nM | 107 nM | – | – | CC1(C)CC(NS(C)(=O)=O)c2ccc(-c3nc(N4CC[C@@H]4CF)nc4c3CCC4(F)F)cc21 (stereo partly drawn) [Example 629, N-(5-(7,7-difluoro-2-((R)-2-(fluoromethyl)azetidin-1-yl)-6,7-dihydro-5H-cyclopenta[d]pyrimidin-4-yl)-3,3-dimethyl-2,3-dihydro-1H-inden-1-yl)methanesulfonamide] | – | –
2 | 2.4 nM | > 500 nM | 68.8 nM | – | – | C[C@H]1[C@H](O)CN1c1nc(-c2ccc3c(c2)C(C)(C)CC3NS(C)(=O)=O)c2c(n1)C(F)(F)CC2 (stereo partly drawn) [Example 630, N-(5-(7,7-difluoro-2-((2S,3R)-3-hydroxy-2-methylazetidin-1-yl)-6,7-dihydro-5H-cyclopenta[d]pyrimidin-4-yl)-3,3-dimethyl-2,3-dihydro-1H-inden-1-yl)methanesulfonamide] | – | –
3 | 1.7 nM | 11.8 nM | 4.5 nM | – | – | C[C@H]1CCN1c1nc(-c2ccc3c(c2)S(=O)(=O)CC3N)c2c(n1)C(F)(F)CC2 (stereo partly drawn) [Example 656, 6-[7,7-difluoro-2-[(2S)-2-methylazetidin-1-yl]-5,6-dihydrocyclopenta[d]pyrimidin-4-yl]-1,1-dioxo-2,3-dihydrobenzothiophen-3-amine] | – | –
4 | 8 nM | 54 nM | 42.5 nM | – | – | C[C@H]1[C@H](O)CN1c1nc(-c2ccc([C@@H](N)C(F)F)cc2)c2c(n1)C(F)(F)CC2 [Example 659, (2S,3R)-1-[4-[4-[(1R)-1-amino-2,2-difluoro-ethyl]phenyl]-7,7-difluoro-5,6-dihydrocyclopenta[d]pyrimidin-2-yl]-2-methyl-azetidin-3-ol] | – | –
5 | 42.3 nM | – | – | 305 nM | 61.3 nM | C[C@H]1[C@H](O)CN1c1nc(-c2cccc(N=S(C)(=O)C3CC3)c2)c2c(n1)C(F)(F)CC2 (stereo partly drawn) [Example 667, (2S,3R)-1-[4-[3-[(cyclopropyl-methyl-oxo-λ^6-sulfanylidene)amino]phenyl]-7,7-difluoro-5,6-dihydrocyclopenta[d]pyrimidin-2-yl]-2-methyl-azetidin-3-431] | – | –
6 | 32.1 nM | > 500 nM | 46.7 nM | – | – | C[C@H]1CCN1c1nc(-c2cccc(N=S(C)(=O)C3CC3)c2)c2c(n1)C(F)(F)CC2 (stereo partly drawn) [Example 668, cyclopropyl-[3-[7,7-difluoro-2-[(2S)-2-methylazetidin-1-yl]-5,6-dihydrocyclopenta[d]pyrimidin-4-yl]phenyl]imino-methyl-oxo-λ^6-sulfane] | – | –
7 | 16.2 nM | 429 nM | 28.6 nM | – | – | C[C@H]1CCN1c1nc(-c2cccc(N=S3(=O)CCCC3)c2)c2c(n1)C(F)(F)CC2 [Example 669, 1-[3-[7,7-difluoro-2-[(2S)-2-methylazetidin-1-yl]-5,6-dihydrocyclopenta[d]pyrimidin-4-yl]phenyl]iminothiolane 1-oxide] | – | –
8 | 24.3 nM | 31.4 nM | 25.3 nM | – | – | C[C@H]1[C@H](O)CN1c1nc(-c2ccc3c(c2)OC[C@@H]3n2ccnn2)c2c(n1)C(F)(F)CC2 [Example 670] | – | –
9 | 32.9 nM | 269 nM | 35.1 nM | – | – | C[C@H]1[C@H](O)CN1c1nc(-c2cccc(N=S3(=O)CCCC3)c2)c2c(n1)C(F)(F)CC2 [Example 671, (2S,3R)-1-[7,7-difluoro-4-[3-[(1-oxothiolan-1-ylidene)amino]phenyl]-5,6-dihydroeyelopenta[d]pyrimidin-2-yl]-2-methyl-azetidin-3-ol] | – | –
10 | 33.2 nM | 105 nM | 56.2 nM | – | – | C[C@H]1[C@H](O)CN1c1nc(-c2cccc(N=S3(=O)CCNCC3)c2)c2c(n1)C(F)(F)CC2 [Example 672, (2S,3R)-1-[7,7-difluoro-4-[3-[(1-oxo-1,4-thiazinan-1-ylidene)amino]phenyl]-5,6-dihydroeyelopenta[d]pyrimidin-2-yl]-2-methyl-azetidin-3-ol] | – | –
11 | 0.2 nM | 232 nM | 3 nM | – | – | C[C@H]1[C@H](F)CN1c1nc(-c2ccc3c(c2)S(=O)(=O)CC3NS(C)(=O)=O)c2c(n1)C(F)(F)CC2 (stereo partly drawn) [Example 674, N-[6-[7,7-difluoro-2-[(2S,3R)-3-fluoro-2-methyl-azetidin-1-yl]-5,6-dihydrocyclopenta[d]pyrimidin-4-yl]-1,1-dioxo-2,3-dihydrobenzothiophen-3-yl]methanesulfonamide] | – | –
12 | 41.7 nM | 101 nM | 75.2 nM | – | – | CS(=N)(=O)c1cccc(-c2nc(N3CC[C@@H]3C#N)nc3c2CCC3(F)F)c1 (stereo partly drawn) [Example 709, (2R)-1-(7,7-difluoro-4-(3-(S-methylsulfonimidoyl)phenyl)-6,7-dihydro-5H-cyclopenta[d]pyrimidin-2-yl)azetidine-2-carbonitrile] | – | –
13 | 7.2 nM | 42.6 nM | 12.9 nM | – | – | C[C@H]1[C@H](F)CN1c1nc(-c2cccc(S(C)(=N)=O)c2)c2c(n1)C(F)(F)CC2 (stereo partly drawn) [Example 710, (3-(7,7-difluoro-2-((2S,3R)-3-fluoro-2-methylazetidin-1-yl)-6,7-dihydro-5H-cyclopenta[d]pyrimidin-4-yl)phenyl)(imino)(methyl)-λ^6-sulfanone] | – | –
14 | 19 nM | 41.3 nM | 44.3 nM | – | – | C[C@H]1[C@H](O)CN1c1nc(-c2ccc(F)c(S(C)(=N)=O)c2)c2c(n1)C(F)(F)CC2 (stereo partly drawn) [Example 723, (5-(7,7-difluoro-2-((2S,3R)-3-hydroxy-2-methylazetidin-1-yl)-6,7-dihydro-5H-cyclopenta[d]pyrimidin-4-yl)-2-fluorophenyl)(imino)(methyl)-λ^6-sulfanone] | – | –
15 | 16.7 nM | 306 nM | 62.1 nM | – | – | C[C@H]1CCN1c1nc2c(c(-c3ccc4c(c3)S(=N)(=O)CCO4)n1)CCC2 (some centres unmarked) [Example 726] | – | –
16 | 2 nM | 159 nM | 11.4 nM | – | – | C[C@H]1CCN1c1nc(-c2cc3c(c(CNS(C)(=O)=O)c2)OCC3)c2c(n1)C(F)(F)CC2 [Example 762, N-[[5-[7,7-difluoro-2-[(2S)-2-methylazetidin-1-yl]-5,6-dihydrocyclopenta[d]pyrimidin-4-yl]-2,3-dihydrobenzofuran-7-yl]methyl]methanesulfonamide] | – | –
17 | 5.5 nM | 22.1 nM | 8.9 nM | – | – | CCOc1ccc(-c2nc(N3C[C@@H](O)[C@@H]3C)nc3c2CCC3(F)F)cc1S(N)(=O)=O [Example 764, 5-[7,7-difluoro-2-[(2S,3R)-3-hydroxy-2-methyl-azetidin-1-yl]-5,6-dihydrocyclopenta[d]pyrimidin-4-yl]-2-ethoxy-benzenesulfonamide] | – | –
18 | 7.7 nM | 53.2 nM | 15.5 nM | – | – | C[C@H]1CCN1c1nc(-c2ccc3c(c2)CNC3)c2c(n1)C(F)(F)CC2 [Example 765, 7,7-difluoro-4-isoindolin-5-yl-2-[(2S)-2-methylazetidin-1-yl]-5,6-dihydrocyclopenta[d]pyrimidine] | – | –
19 | 11.8 nM | – | – | 150 nM | 38.4 nM | CC(=O)NCc1cc(-c2nc(N3C[C@@H](O)[C@@H]3C)nc3c2CCC3(F)F)cc2c1OCC2 [Example 766, N-[[5-[7,7-difluoro-2-[(2S,3R)-3-hydroxy-2-methyl-azetidin-1-yl]-5,6-dihydrocyclopenta[d]pyrimidin-4-yl]-2,3-dihydrobenzofuran-7-yl]methyl]acetamide] | – | –
20 | 4.8 nM | 97.9 nM | 20.9 nM | – | – | CC(=O)NC1COc2cc(-c3nc(N4CC[C@@H]4C)nc4c3CCC4(F)F)ccc21 (stereo partly drawn) [Example 767, N-[6-[7,7-difluoro-2-[(2S)-2-methylazetidin-1-yl]-5,6-dihydrocyclopenta[d]pyrimidin-4-yl]-2,3-dihydrobenzofuran-3-yl]acetamide] | – | –
21 | 5.7 nM | 156 nM | 44.3 nM | – | – | CNC1(c2ccc(-c3nc(N4C[C@@H](F)[C@@H]4C)nc4c3CCC4(F)F)cc2)CS(=O)(=O)C1 [Example 770, 3-(4-(7,7-difluoro-2-((2S,3R)-3-fluoro-2-methylazetidin-1-yl)-6,7-dihydro-5H-cyclopenta[d]pyrimidin-4-yl)phenyl)-3-(methylamino)thietane 1,1-dioxide] | – | –
22 | 1 nM | 33.8 nM | 10.5 nM | – | – | C[C@H]1[C@H](F)CN1c1nc(-c2ccc(C3(N)CS(=O)(=O)C3)cc2)c2c(n1)C(F)(F)CC2 [Example 772] | – | –
23 | 2.1 nM | – | 11.8 nM | – | – | C[C@H]1CCN1c1nc(-c2ccc(C(N)CS(C)(=O)=O)cc2)c2c(n1)C(F)(F)CC2 (stereo partly drawn) [Example 774, 1-(4-(7,7-difluoro-2-((S)-2-methylazetidin-1-yl)-6,7-dihydro-5H-cyclopenta[d]pyrimidin-4-yl)phenyl)-2-(methylsulfonyl)ethan-1-amine] | – | –
24 | 4.8 nM | 35 nM | 22.8 nM | – | – | CS(=O)(=O)CC(N)c1ccc(-c2nc(N3CC[C@@H]3CF)nc3c2CCC3(F)F)cc1 (stereo partly drawn) [Example 780, 1-(4-(7,7-difluoro-2-((R)-2-(fluoromethyl)azetidin-1-yl)-6,7-dihydro-5H-cyclopenta[d]pyrimidin-4-yl)phenyl)-2-(methylsulfonyl)ethan-1-amine] | – | –

Row | Compound | IC50 (human KHK-C) | EC50 (HepG2 cells; [1]) | EC50 (HepG2 cells; [2]) | EC50 (HepG2 cells; [5]) | EC50 (HepG2 cells; [6]) | EC50 (HepG2 cells; [3]) | EC50 (HepG2 cells; [4])
25 | C[C@H]1[C@H](O)CN1c1nc(-c2ccc3c(c2)CCNC3)c2c(n1)C(F)(F)CC2 [Example 657, (2S,3R)-1-[7,7-difluoro-4-(1,2,3,4-tetrahydroisoquinolin-6-yl)-5,6-dihydrocyclopenta[d]pyrimidin-2-yl]-2-methyl-azetidin-3-ol] | 2.7 nM | – | – | – | – | 4.1 nM | 4.2 nM
26 | C[C@H]1[C@H](O)CN1c1nc(-c2cc(F)cc(S(C)(=N)=O)c2)c2c(n1)C(F)(F)CC2 (some centres unmarked) [Example 724] | 25.4 nM | – | – | – | – | 166 nM | 234 nM
